Experiment [1] deals with T1, Tyrosine-protein phosphatase non-receptor type 1 (Homo sapiens) (UniProt P18031).
T1 sequence (whole entry): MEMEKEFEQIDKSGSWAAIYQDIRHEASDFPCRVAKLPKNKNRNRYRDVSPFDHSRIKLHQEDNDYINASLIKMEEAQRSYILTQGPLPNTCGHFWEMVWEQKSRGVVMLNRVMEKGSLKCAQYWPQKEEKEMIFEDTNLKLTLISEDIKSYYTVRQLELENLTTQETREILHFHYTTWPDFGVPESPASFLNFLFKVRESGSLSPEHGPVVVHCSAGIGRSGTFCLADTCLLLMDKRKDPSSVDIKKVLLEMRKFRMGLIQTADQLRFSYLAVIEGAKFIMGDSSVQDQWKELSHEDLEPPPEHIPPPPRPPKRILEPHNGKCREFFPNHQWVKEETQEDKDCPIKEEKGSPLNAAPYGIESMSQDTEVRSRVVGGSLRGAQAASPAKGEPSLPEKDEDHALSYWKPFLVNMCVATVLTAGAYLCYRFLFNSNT
As to the kind of experiment: Inhibition of wild type human HIS6-tagged PTP1B (1 to 400 residues) expressed in Escherichia coli Rosetta (DE3) pLysS cells using p-NPP substrate at 0.38 to 1 mM preincubated for 10 mins followed dby substrate addition and measured after 20 mins relative to control. The conditions noted are these: dose mM 0.38-1, time 30.0 min.

The target of experiment [2] is T1, Tyrosine-protein phosphatase non-receptor type 1 (Homo sapiens). Briefly: Binding affinity to human PTP1B (1 to 405 residues) at 1:2 protein-ligand ratio.
A short description of experiment [3]: Inhibition of Saccharomyces cerevisiae alpha-glucosidase using pNPG as substrate preincubated for 10 mins followed by substrate addition after 20 mins.
In experiment [4] the target is T1, Tyrosine-protein phosphatase non-receptor type 1 (Homo sapiens).
Description: Binding affinity to wild type human HIS6-tagged PTP1B (1 to 400 residues) expressed in Escherichia coli Rosetta (DE3) pLysS by tryptophan-tyrosine residues based spectrometric method

The structures appear in SMILES notation. The source made the active and inactive calls. No cut-off for these calls is given here.

One may read the inhibition as the change of the read-out against control, counted positive when it falls. `CC(=O)O[C@H]1CC2=C(/C=C\C=C\[C@@]3(C)C[C@H](c4ccoc4)OC(=O)[C@@H]13)C(=O)OC2`: in experiment [1], the inhibition entry is “Active”.

As to `CC(C)[C@@H](CC[C@@H](C)[C@H]1CC[C@H]2[C@@H]3[C@H](O)C[C@H]4C[C@@H](NCCCNCCCCNCCCN)CC[C@]4(C)[C@H]3CC[C@]12C)OS(=O)(=O)O`, the Ka in experiment [2] is 3.3 10^5/M.

As usually defined, the IC50 is the point on the concentration scale where inhibition reaches its midpoint. A high value points to a need for much substance. For the molecule `C[C@H]1[C@H](C)CC[C@]2(C(=O)O)CC[C@]3(C)C(=CC[C@@H]4[C@@]5(C)CC[C@H](O)C(C)(C)[C@@H]5CC[C@]43C)[C@H]12` [URSOLIC ACID], the IC50 in experiment [3] is 7.5 µM. This molecule also showed an inhibition in experiment [1] of 50%. Further, the Ka in experiment [4] is 1.3 10^4/M.

Values taken from ChEMBL document CHEMBL4699446, “Hydroxy-neo-Clerodanes and 5,10-seco-neo-Clerodanes from Salvia decora” (J Nat Prod, 2020).
